Patent US20220096507A1, “Parenteral Pharmaceutical Composition Comprising Azacitidine or Decitabine in DMSO” (Sandoz AG, priority 2020, published 2022)
Where two headings read alike, the source gives them in different places.

Assays:
[1] = bulk (non-pharmaceutical grade) substance, purity above 95%, Cayman leaflet; cited from earlier work
[2] = at 25° C. in water; cited from earlier work
[3] = 250 mg/mL in DMSO, relative to week 0
Procedure: A 250 mg/mL solution of azacitidine (TEVA Sicor) in DMSO (Merck; Ph. Eur. grade quality) with a water content of less than 0.1 wt.-% was prepared and filled into (moisture proof) vials, which were subsequently sealed using rubber stoppers. […] The amount of azacitidine was analyzed using high performance liquid chromatography (HPLC) and comparing the integral of the azacitidine peak with the integral of a freshly prepared standard solution containing a predetermined amount of azacitidine.
HPLC measurements were carried out using an Agilent 1200 system (or equivalent). For detection, a UV detector (235 nm) was used. A YMC Hydrosphere C18 (250 mm*4.6 mm*[…]) column and a flow rate of 1.0 mL/min and a gradient of aq. pH 7 buffer solution (containing disodium hydrogen phosphate, orthophosphoric acid and ammonium formate)/acetonitrile from 100:0 to 40:60 were employed.

Row | % of azacitidine at 25° C. ([3]; water <0.1 wt.-%, day 0) [%] | % of azacitidine at 40° C. ([3]; water <0.1 wt.-%, day 0) [%] | % of azacitidine at 25° C. ([3]; day 7) [%] | % of azacitidine at 40° C. ([3]; day 7) [%] | % of azacitidine at 25° C. ([3]; day 14) [%] | % of azacitidine at 40° C. ([3]; day 14) [%] | % of azacitidine at 25° C. ([3]; day 21) [%] | % of azacitidine at 40° C. ([3]; day 21) [%] | % of azacitidine at 25° C. ([3]; day 28) [%] | % of azacitidine at 40° C. ([3]; day 28) [%] | % of azacitidine at 25° C. ([3]; day 56) [%] | % of azacitidine at 40° C. ([3]; day 56) [%] | % of azacitidine at 25° C. ([3]; day 98) [%] | % of azacitidine at 40° C. ([3]; day 98) [%] | % of azacitidine at 25° C. ([3]; day 182) [%] | % of azacitidine at 40° C. ([3]; day 182) [%] | Compound | solubility in bulk DMSO [1] | solubility of azacitidine in water [2] [mg/mL]
1 |  |  |  |  |  |  |  |  |  |  |  |  |  |  |  |  | Nc1ncn([C@H]2C[C@H](O)[C@@H](CO)O2)c(=O)n1 [decitabine, 5-aza-2′-deoxycytidine] | approximately 30 mg/mL | 
2 | 100 | 100 | 100 | 100 | 100 | 100 | 100 | 100 | 100 | 100 | 100 | 99 | 100 | 96 | 100 | 94 | Nc1ncn([C@@H]2O[C@H](CO)[C@@H](O)[C@H]2O)c(=O)n1 [azacitidine, 5-azacytidine] | approximately 30 mg/mL | 13.4
